Assay results from ChEMBL document CHEMBL4308916, “Leucoflavonine, a new bioactive racemic flavoalkaloid from the leaves of Leucosceptrum canum” (Bioorg Med Chem, 2019).
Active and inactive are the calls of the source. No cut-off for these calls is given here.

Experiments:
RAW264.7 [1] = assay: Anti-inflammatory activity in mouse RAW264.7 cells assessed as reduction in LPS-induced IL-6 production after 48 hrs by ELISA; type: functional, cell-based; details: RAW264.7, 48 h
RAW264.7 [2] = assay: Anti-inflammatory activity in mouse RAW264.7 cells assessed as reduction in LPS-induced TNF-alpha production after 48 hrs by ELISA; type: functional, cell-based; details: RAW264.7, 48 h
PC-9 [3] = assay: Cytotoxicity against human PC9 cells at 80 uM after 72 hrs by MTT assay; type: cell-based; details: pc-9, 72 h
Acetylcholinesterase [4] = target: T1, Acetylcholinesterase (Homo sapiens, UniProt P22303); assay: Inhibition of AChE (unknown origin) using acetylthiocholine iodide as substrate preincubated for 20 mins followed by substrate addition and measured every 30 secs for 1 hr by Ellman's assay
PC-9 [5] = assay: Cytotoxicity against human PC9 cells after 72 hrs by MTT assay; type: cell-based; details: PC-9, 72 h
Jurkat [6] = assay: cells; details: Homo sapiens, 48 h
Description: Immunosuppressive activity in human Jurkat cells assessed as reduction in PHA + PMA-induced IL-2 production after 48 hrs by ELISA

NCI-H1975 [7] = assay: Cytotoxicity against human NCI-H1975 cells at 80 uM after 72 hrs by MTT assay; type: cell-based; details: nci-h1975, 72 h
NCI-H1975 [8] = assay: cells; details: Homo sapiens, NCI-H1975, 72 h
Description: Cytotoxicity against human NCI-H1975 cells after 72 hrs by MTT assay

HepG2 [9] = assay: cells; details: Homo sapiens, HepG2, 72 h
Description: Cytotoxicity against human HepG2 cells after 72 hrs by MTT assay

HepG2 [10] = assay: Cytotoxicity against human HepG2 cells at 80 uM after 72 hrs by MTT assay; type: cell-based; details: hepg2, 72 h
Jurkat [11] = assay: Immunosuppressive activity in human Jurkat cells assessed as reduction in PHA + PMA-induced IL-2 production at 20 uM after 48 hrs by ELISA; type: functional, cell-based
Acetylcholinesterase [12] = target: T1, Acetylcholinesterase; assay: Inhibition of AChE (unknown origin) at 250 uM using acetylthiocholine iodide as substrate preincubated for 20 mins followed by substrate addition and measured every 30 secs for 1 hr by Ellman's assay

T1 sequence (P22303 whole entry): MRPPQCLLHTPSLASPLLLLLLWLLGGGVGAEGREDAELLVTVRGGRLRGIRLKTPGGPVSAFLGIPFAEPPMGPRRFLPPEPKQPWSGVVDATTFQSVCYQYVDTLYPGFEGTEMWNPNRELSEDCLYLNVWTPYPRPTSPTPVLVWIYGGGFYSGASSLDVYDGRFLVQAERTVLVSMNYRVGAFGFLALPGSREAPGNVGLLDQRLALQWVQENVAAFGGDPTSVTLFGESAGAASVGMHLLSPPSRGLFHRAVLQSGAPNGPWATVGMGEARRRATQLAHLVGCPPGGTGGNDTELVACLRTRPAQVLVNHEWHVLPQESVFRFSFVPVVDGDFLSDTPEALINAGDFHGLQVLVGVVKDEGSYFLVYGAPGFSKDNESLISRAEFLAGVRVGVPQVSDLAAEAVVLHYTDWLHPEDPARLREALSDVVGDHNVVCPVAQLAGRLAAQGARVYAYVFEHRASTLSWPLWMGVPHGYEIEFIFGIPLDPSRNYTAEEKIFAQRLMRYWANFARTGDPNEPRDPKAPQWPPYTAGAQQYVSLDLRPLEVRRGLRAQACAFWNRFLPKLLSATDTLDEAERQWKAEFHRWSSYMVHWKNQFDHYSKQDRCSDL

SMILES | IC50 (RAW264.7 [1]) [µM] | IC50 (RAW264.7 [2]) [µM] | Activity (PC-9 [3]) | IC50 (Acetylcholinesterase [4]) [µM] | IC50 (PC-9 [5]) [µM] | IC50 (Jurkat [6]) [µM] | Activity (NCI-H1975 [7]) | IC50 (NCI-H1975 [8]) [µM] | IC50 (HepG2 [9]) [µM] | Activity (HepG2 [10]) | inhibition (Jurkat [11]) | inhibition (Acetylcholinesterase [12]) [%]
C[C@@H]1C[C@H]2[C@@H]3CCC4=CC(=O)C=C[C@]4(C)[C@@]3(F)[C@@H](O)C[C@]2(C)[C@@]1(O)C(=O)CO [DEXAMETHASONE] | 9.4 | 1.2 | – | – | – | – | – | – | – | – | – | –
COc1ccc(-c2cc(=O)c3cc(OC)c(O)c([C@@H]4CCC(=O)N4)c3o2)cc1 | > 20 | > 20 | Non-Toxic | 68 | > 80 | > 20 | Non-Toxic | > 80 | > 80 | Non-Toxic | – | –
COc1ccc(-c2cc(=O)c3cc(OC)c(O)c([C@H]4CCC(=O)N4)c3o2)cc1 | > 20 | > 20 | – | 18.3 | > 80 | 16.5 | – | > 80 | 52.9 | – | – | –
CC(=O)O[C@H]1C(=O)[C@@]2(C)[C@H]([C@H](OC(=O)c3ccccc3)[C@]3(O)C[C@H](OC(=O)[C@H](O)[C@@H](NC(=O)c4ccccc4)c4ccccc4)C(C)=C1C3(C)C)[C@]1(OC(C)=O)CO[C@@H]1C[C@@H]2O [PACLITAXEL] | – | – | – | – | 3.7 | – | – | 3.9 | 10.3 | – | – | –
COc1ccc(-c2cc(=O)c3c(O)c(OC)c(O)cc3o2)cc1 [PECTOLINARIGENIN] | > 20 | > 20 | – | > 250 | > 80 | > 20 | – | 76.6 | 18.1 | – | inactive | 37.8
